Holding throughout (assay): NCI anticancer screen, dose series, 48 h
For assay [1], the system named is 786-0.
The test system of assay [2] is UACC-62.
In assay [3] the test system is NCI-H460.
The test system of assay [4] is SR.
Assay [5] has as its system SNB-75.
Assay [6] has as its system EKVX.
For assay [7], the system named is A549.
The subject of assay [8] is OVCAR-3.
The subject of assay [9] is SF-268.
For assay [10], the system named is UO-31.
For assay [11], the system named is CCRF-CEM.
The subject of assay [12] is OVCAR-5.
The subject of assay [13] is NCI/ADR-RES.
In assay [14] the test system is K562.
The test system of assay [15] is RXF 393.
The subject of assay [16] is MDA-MB-435.
The test system of assay [17] is SK-MEL-28.
Assay [18] has as its system HL-60.
Assay [19] has as its system MDA-MB-231.
Assay [20] concerns MDA-N.

Molecules are shown by their SMILES. “And” between values parts separate entries of the source, which are not always exact repeats. Equal values may be shown once.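 Cultured in 96-well plates, cells were exposed to test compound for 48 hours across five concentrations. The concentration for 50% growth inhibition is given as GI50.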 The source made the active and inactive calls. Cut-off read from the data, not from the text of the source: active = GI50 up to about 1.1 µM and inactive = higher. A value given as a limit tells only on which side of the number the result lay.

Experimental findings from ChEMBL document CHEMBL1201862, “PubChem BioAssay data set” (2004) are described below.

On to `COc1ccc(-n2c(=O)c3nc(S)[nH]c3n(-c3ccc(OC)cc3)c2=S)cc1`, for which the GI50 in [1], in assay [2], in assay [3], in assay [4], in [5] and in [6] was > 100 µM (inactive) in each case. Besides, the GI50 in assay [7], in assay [8], in assay [9], in assay [10], in assay [11] and in assay [12] was > 100 µM (inactive) throughout. For the same compound, the GI50 in [13], in [14], in assay [15], in [16], in assay [17] and in assay [18] was > 100 µM (inactive) each time. In addition, in assay [19], the GI50 is > 100 µM (inactive).
Regarding `O=C(NC1CCCCCC1)C1C(=O)N(C2CCCCCC2)C(=O)/C1=N\O` (configuration not stated), the GI50 is 32.8 µM (inactive) in assay [1]; 21 µM (inactive) in [2]; 35.7 µM (inactive) in assay [3]; 23.8 µM (inactive) in [4]; 26.6 µM (inactive) in assay [5]; 36.2 µM (inactive) in assay [6]. The GI50 in assay [7] was 42.8 µM (inactive); in [8], 17.6 µM (inactive); in assay [9], 29.1 µM (inactive); in [10], 28.4 µM (inactive); in assay [11] it was 27.2 µM (inactive); in assay [12], 50.8 µM (inactive). In addition, the GI50 in [14] is 39.1 µM (inactive); in [15] it was 23.5 µM (inactive); in assay [17], 30 µM (inactive); in [18], 22.5 µM (inactive).
`COc1ccc(/C=C2\CNC/C(=C\c3ccc(OC)cc3)C2=O)cc1`: the GI50 in assay [1] was 46.3 µM (inactive); in [2] it was 49.4 µM (inactive); in [3], 47.9 µM (inactive); in assay [4] it was 24.8 µM (inactive); in assay [5] it was 30.4 µM (inactive); in assay [6], > 100 µM (inactive). The GI50 in assay [7] was 59.4 µM (inactive); in assay [8], 35 µM (inactive); in assay [9], 24.1 µM (inactive); in assay [10], > 100 µM (inactive); in assay [11], 12.4 µM (inactive); in assay [12] it was > 100 µM (inactive). Moreover, the GI50 was 14.7 µM (inactive) in assay [14], 21 µM (inactive) in assay [15], 87.9 µM (inactive) in assay [17] and 14 µM (inactive) in assay [18].
On to `O=[N+]([O-])c1cc(/C=N\NS(=O)(=O)c2ccc(Cl)cc2)c(O)c([N+](=O)[O-])c1`, for which the GI50 in assay [1] was 36.1 µM (inactive); in assay [2], 32.4 µM (inactive); in [3], 21 µM (inactive); in assay [4] it was 21 µM (inactive); in assay [5], 24.9 µM (inactive); in assay [6], > 100 µM (inactive). For the same compound, the GI50 in [7] was 37.8 µM (inactive); in [8], 24.4 µM (inactive); in assay [9] it was 38 µM (inactive); in [10], 71.4 µM (inactive); in assay [11], 24.4 µM (inactive); in [12], > 100 µM (inactive). The GI50 is 31.1 µM (inactive) in assay [14], 32.8 µM (inactive) in assay [15], 93.3 µM (inactive) in [17] and 26.7 µM (inactive) in assay [18].
Take `CC(C)(C)C1CCC2c3c([nH]c4ccccc34)C3C(=O)N(c4ccccc4)C(=O)C3C2C1` (configuration not stated): the GI50 is 7.14 µM (inactive) in [1]; 20.9 µM (inactive) in assay [2]; 3.7 µM (inactive) in assay [3]; 6.27 µM (inactive) in assay [4]; 2.85 µM (inactive) in [5]; 14.9 µM (inactive) in [6]. Moreover, the GI50 in [7] was 10.8 µM (inactive); in [8] it was 4.01 µM (inactive); in assay [9], 13.6 µM (inactive); in assay [10], 2.62 µM (inactive); in assay [11], 2.77 µM (inactive); in [12] it was > 100 µM (inactive). The GI50 is 4.36 µM (inactive) in assay [14], 3.81 µM (inactive) in [15], 4.97 µM (inactive) in assay [17] and 12.8 µM (inactive) in assay [18].
For `COC(=O)N/N=c1\cc(C(=O)Nc2ccc(C)c(C)c2)oc2cc(O)ccc12`, the GI50 in assay [1], in [2], in assay [3], in [4], in assay [5] and in assay [6] was > 100 µM (inactive) in each case. Also, the GI50 in assay [7], in [8], in [9], in assay [10], in [11] and in assay [12] was > 100 µM (inactive) each time. Further, the GI50 in [14], in [15], in assay [17] and in assay [18] was > 100 µM (inactive) each time.
Take `N/C(=N\O)N/N=C/c1cccs1`: the GI50 in assay [1] was > 100 µM (inactive); in [2] it was 15.8 µM (inactive); in assay [3], 33.7 µM (inactive); in assay [4] it was 67.3 µM (inactive); in assay [5] it was 20 µM (inactive); in assay [6], 23.7 µM (inactive). For the same compound, the GI50 was 23.9 µM (inactive) in [7]; 34.9 µM (inactive) in assay [8]; 17.2 µM (inactive) in [9]; 55.1 µM (inactive) in assay [10]; > 100 µM (inactive) in assay [11]; 47.1 µM (inactive) in [12]. Moreover, the GI50 in assay [14] is 86.9 µM (inactive); in assay [15], > 100 µM (inactive); in [17], > 100 µM (inactive); in [18], 28.1 µM (inactive).
Regarding `COc1ccccc1/C=C(/C)[N+](=O)[O-]`, the GI50 in [1] was 1.37 µM (inactive) and 1.13 µM (inactive); in assay [2], 1.89 µM (inactive) and 1.58 µM (inactive); in [6], 3.21 µM (inactive) and 4.49 µM (inactive); in assay [7], 2.33 µM (inactive) and 2.98 µM (inactive); in assay [8] it was 1.32 µM (inactive) and 1.09 µM (active); in [10] it was 1.69 µM (inactive) and 1.72 µM (inactive). The GI50 in [13] is 3.44 µM (inactive) and 2.65 µM (inactive); in assay [16], 3.15 µM (inactive) and 1.93 µM (inactive); in assay [17], 2.46 µM (inactive) and 2.19 µM (inactive); in assay [18], 1.88 µM (inactive) and 1.21 µM (inactive); in [19] it was 3.43 µM (inactive) and 4.86 µM (inactive).
`CC(C)(C)C1=C(Br)C(F)(C(C)(C)C)OP1(=O)c1ccccc1` (configuration not stated): the GI50 in [1] was 16.1 µM (inactive); in assay [2] it was 15.3 µM (inactive); in assay [3], 19.1 µM (inactive); in assay [4] it was 11.9 µM (inactive); in assay [5] it was 17 µM (inactive); in assay [6], 19.3 µM (inactive). The GI50 in assay [7] was 19.3 µM (inactive); in assay [8], 15.5 µM (inactive); in assay [9] it was 19.6 µM (inactive); in [10], 45.7 µM (inactive); in [12] it was 20.2 µM (inactive); in assay [13] it was 16.4 µM (inactive). Besides, the GI50 was 20 µM (inactive) in assay [20]; 10 µM (inactive) in [14]; 11.1 µM (inactive) in assay [15]; 16.1 µM (inactive) in assay [16]; 19.2 µM (inactive) in assay [17]; 2.79 µM (inactive) in assay [18].
With `CC(C)=CCC[C@@H](C)C1=C(O)C(=O)C(C)=C(c2c(I)c(=O)n(C)c(=O)n2C)C1=O`, the GI50 was > 100 µM (inactive) in [1]; > 100 µM (inactive) in [3]; > 100 µM (inactive) in assay [5]; > 100 µM (inactive) in assay [6]; 61 µM (inactive) in [7]; > 100 µM (inactive) in assay [8]. For the same compound, the GI50 in [9], in assay [10], in assay [11], in [12], in assay [13] and in assay [20] was > 100 µM (inactive) throughout. The GI50 is 61.9 µM (inactive) in assay [14], > 100 µM (inactive) in assay [16], > 100 µM (inactive) in assay [17] and 74.6 µM (inactive) in assay [18].
For `C[N+](C)(C)CC1CCCC(C[N+](C)(C)C)C1O` (configuration not stated), the GI50 in assay [1], in assay [2], in assay [3], in assay [4], in assay [5] and in assay [6] was > 100 µM (inactive) throughout. Also, the GI50 in assay [7], in assay [8], in [9], in [10], in assay [11] and in assay [12] was > 100 µM (inactive) throughout. For the same compound, the GI50 in assay [14], in assay [15], in assay [17] and in [18] was > 100 µM (inactive) each time.
`COc1cc(Cn2c3ccccc3c3cc(C)c4c(c32)C=CC(C)(CCC=C(C)C)O4)cc2c1[nH]c1ccccc12` (configuration not stated) [CHRESTFOLINE C]: the GI50 in assay [1], in assay [2], in assay [3], in assay [4], in [5] and in assay [6] was > 100 µM (inactive) in each case. The GI50 in assay [7], in assay [8], in assay [9], in assay [10], in [11] and in assay [12] was > 100 µM (inactive) each time. The GI50 in [14], in assay [15], in assay [17] and in [18] was > 100 µM (inactive) throughout.
